Source: ChEMBL document CHEMBL1158141, “A sorbicillinoid urea from an intertidal Paecilomyces marquandii” (2006)

Key:
Escherichia coli = experiment: Antibiotic activity against Escherichia coli ATCC 25922 by agar diffusion method; assay type: functional
Bacillus subtilis = experiment: Antibiotic activity against Bacillus subtilis ATCC 6633 by agar diffusion method; assay type: functional

Row | SMILES | inhibition zone (IZ) (Escherichia coli) [mm] | inhibition zone (IZ) (Bacillus subtilis) [mm]
1 | CC(C)C[C@@H]1NC(=O)[C@H](Cc2ccccc2)NC1=O | 8 | 10
2 | CC(C)[C@@H]1NC(=O)[C@H](Cc2ccccc2)NC1=O | 8 | 9
